# Measurements taken from US8575352B2, “Benzyl sulfonamide derivatives useful as MOGAT-2 inhibitors” (Eli Lilly and Company, priority 2012, dated 2013).
# Structures can show the parent of a compound that is named as a salt.
# Legend:
# [1] = tested on: plasma triglyceride (TAG) secretion from the intestine; assay: Dog Oil Bolus Model (plasma triglyceride after olive oil bolus); format: in vivo, dog (male beagles); details: olive oil bolus 5 ml/kg; for reduction of 18:1 TAG (plasma TAG 18:1 18:1 18:1 net AUC): 18:1 TAG by LC/MS/MS
# Description: Inhibiting MOGAT-2 found in the small intestine may be useful for treating hypertriglyceridemia caused by excessive fat intake Inhibition of MOGAT-2 disrupts resynthesis of triglycerides, which reduces secretion of triglycerides from the intestine. Therefore, MOGAT-2 inhibition interferes with a specific process that leads to eventual secretion of triglycerides into the intestine for eventual circulation through the body. To assess the ability of one or more of the exemplified compounds to inhibit MOGAT-2 induced TAG secretion into the intestine as measured in the blood system, the following protocol can be followed.
# Twenty one male beagles (n=7 per treatment group) are enrolled for each study, each dog selected to have a body weight between 9-13 kg. House the dogs in cages with a standard light cycle (12 hours light and 12 hours dark); at room temperature: 72±8° F.; and at 30%-70% relative humidity. Fast the dogs for 16 hours prior to the start of the study, then dose the fasted dogs with vehicle (1% HEC, 0.25%, Tween 80, Antifoam) or one of the test compounds in that vehicle. Bleed the dogs one hour after dosing, (0.5 ml from the jugular vein) for a time 0 sample. Dose the dogs with olive oil (Sigma Catalog#: O-1514, 5 ml/kg) immediately after collection of the time 0 sample. Collect samples into an EDTA tube on ice at 1.5, 2, 3, 5, 7, and 9 hrs post compound/vehicle dosing. Centrifuge the samples at […] for 15 min and analyze (Roche Cat no. 1877771) for plasma total triglyceride using a Roche Hitachi 917. For plasma TAG 18.1—18.1—18.1 measurement, extract the samples and perform LC/MS/MS analysis similarly to that described above in MOGAT-2 Cell Assay using 10 μL of plasma/.
# The analyte is the [M+NH4]+ ion of TAG 18:1 18:1 18:1, which has a mass of 902.8 m/z; the internal standard is D5 TAG 16:0 16:0 16:0, which has a mass of 829.8 m/z. Report the ratio of the 603.5 m/z daughter ion of 902.8 m/z (TAG 18:1 18:1 18:1) and the 556.5 m/z daughter ion of 829.8 m/z (D5 TAG 16:0 16:0 16:0 internal standard) changes in TAG 18:1 18:1 18:1 relative amount. Calculate the net plasma TAG AUC from total TAG AUC minus baseline TAG AUC using Graphpad Prism4: (Net AUCTAG=AUCTAG post oil bolus−AUCTAG at 0 hour). The percent inhibition of plasma triglyceride is calculated as follows: the (oil bolus group mean of net TAG AUC−oil bolus group mean of net TAG AUC with compound treatment/oil bolus group mean of net TAG AUC)*100. The final statistic analysis uses Dunnett's method of One way Anova for comparison with the control. All Net TAG AUC values are transformed to ranked averaged AUC for comparison to limit the variability within the studies.
# human MOGAT-2 [2] = molecular target: T1, human MOGAT-2 (Homo sapiens, UniProt Q3SYC2); assay: Inhibitory Activity in MOGAT-2 Cell Assay (Caco-2 cells stably transfected with human MOGAT-2, HDG substrate, LC-MS); format: cell-based; design: expressed in transfected cells; details: Caco-2 cells expressing human MOGAT-2, HDG/DOPC, 4 hours; read-out: IC50 nM (Std Dev., n*)
# Method: The inhibitory activity of compounds against human MOGAT-2 in a cell environment is evaluated in this assay. Caco-2 is a human colon carcinoma cell line and is often used as a model for intestinal epithelial cells. […] A MAG analogue, 2-O-Hexadecylglycerol (HDG), is utilized to detect cellular MOGAT-2 activity, because HDG is not hydrolyzed and the resulting product is readily monitored by mass spectrometry. The substrate is delivered to cells using as a mixture with DOPC in the form of sonicated vesicles.
# Seed the Caco2 cells onto 100 mm dishes to be 80% confluent after 24 hours in complete media (3/1 DMEM: F12+10% FBS+20 mM HEPES+gentamicin). Transfect the cells with hMOGAT-2 plasmid (MOGAT-2-pcDNA3.1-Hygro) using Lipofectamine 2000 (Invitrogen). After a 6 hour exposure to the transfection mixture, wash the cells three times in PBS and then add media. Incubate the cells for an additional 18 hours incubation, trypsinize the cells and serially dilute them into 100 mm dishes. Add complete media+400 μg/ml hygromycin and incubate until clones appear. Isolate and transfer the clones into 24 well dishes and grow to confluency. Prepare the RNAs from these clones using a Qiagen RNAeasy kit. Perform Taqman analysis using an ABI inventoried assay (HS00228262) on a 7900 Sequence Detection System (ABI). Analyze the lysates from these clones by Western blot analysis using a goat polyclonal antibody (Santa Cruz, SC-32392 to confirm human MOGAT-2 expression of a 38 kD protein corresponding to MOGAT-2.
# Mix 2-O-hexadecylglycerol (“HDG”, Biosynth Chemistry & Biology, #H-1806, 562.7 μl of 20 mg/ml) and DOPC (14.3 ml of 20 mg/ml) in chloroform in a glass tube; dry first under N2 gas; and then under reduced pressure for additional 30 minutes. Add 20 ml of buffer (150 mM Tris-Cl pH 7.4, 250 mM sucrose, 1 mM EDTA) to the dried HDG/DOPC mixture while sonicating until the solution becomes clear. Plate the Caco2 cells into a poly-D-lysine coated 96-well plate (the “Cell Plate”) at 37° C., 5% CO2 overnight. Remove the growth media and pretreat the cells with the test compound in DMEMF12 (3:1) media (GIBCO 93-0152DK) containing 2% BSA (Sigma) for 30 minutes. Treat the cells with one test compound in 2% BSA DMEMF12 (3:1) media containing 40 μM of oleic acid and 800 μM of 8.9:91.9 (molar ratio) HDG/DOPC for 4 hours. Trypsinize the cells with 50 μl of trypsin solution and add 50 μl of PBS. Immediately freeze the cells on dry ice and store at −20° C. for LC-MS analysis. Extract the cells with chloroform/methanol as follows: transfer the cells to a 2 ml plate; wash the cell plate with 200 μL methanol and then transfer the methanol wash to the 2 ml plate; wash the cell plate again with 200 μL PBS and transfer the PBS wash to the 2 ml plate. Add chloroform (400 μL) with internal standard (19.52 ng/mL) DAG (15:0, 15:0 (Sigma)), D5-TAG (39.03 ng/mL) CDN (16, 16, 16) to the 2 mL Plate. Turn the sealed 2 mL Plate up and down (10×), then vortex and spin. Remove 400 μL of the lower layer from the 2 mL plate and add to the wells of another plate the “Final Plate”. Add CHCl3:MeOH (400 μL 2:1) to the 2 mL Plate. Again turn the sealed 2 mL Plate up and down (10×), vortex and spin. Remove 220 μL of the lower layer from the 2 mL Plate and add to the Final Plate. Dry the Final Plate and reconstitute with […] of IPA. Seal the Final Plate and shake for 5 min. […]
# human MOGAT-2 [3] = molecular target: T1, human MOGAT-2; assay: MOGAT-2 Inhibitory Assay (in vitro, SF9 cell lysate, 14C-oleoyl-CoA, Microscint extraction); format: biochemical; design: made in house; host or cells: insect SF9 cells (crude lysate supernatant); details: SF9 cell extract expressing human MOGAT-2, 90 min, room temperature
# Method: The in vitro inhibitory activity of compounds against human MOGAT-2 is evaluated in this assay. MOGAT-2 transfers an oleoyl group to monooleoyl-glycerol (“MAG”) from oleoyl-CoA to form dioleoyl-glycerol (“DAG”) in the intestinal triglyceride resynthesis pathway. The assay takes advantage of Microscint Extraction, which extracts hydrophobic molecules selectively over hydrophilic ones to separate the ^14C-oleoyl-CoA from ^14C-DAG.
# Genetically engineered insect SF9 cells express human MOGAT-2. Prepare the cell lysate in 20 mM of NaCl with protease inhibitor (Roche Cat #11873580001). Homogenize the SF9 cells expressing human MOGAT-2 at 15,000 rpm for 20×2 seconds (PT-3100 Polytrone). Centrifuge the homogenate at 1000 g for 10 minutes at 4° C. Collect the supernatant into a separate tube for protein quantification and activity testing. Purify the glycerol monooleate substrate (Spectrum Chemical, CAS#25496-72-4) chromatographically. Prepare the monoacylglyerol (MAG) substrate in phospholipid vescicles (dioleoyl phosphatidylcholine “DOPC”). Prepare the MAG/DOPC vesicles at 20 mM concentration of total lipids (MAG and DOPC). Prepare different molar ratios of MAG to total lipids for either compound screening (8.9%) or compound kinetic studies (2.6-40%). Mix the appropriate amount of purified MAG and DOPC (Avanti Polar Lipids #850375C) in chloroform in a glass tube. […]
# T1 sequence (Q3SYC2 whole entry): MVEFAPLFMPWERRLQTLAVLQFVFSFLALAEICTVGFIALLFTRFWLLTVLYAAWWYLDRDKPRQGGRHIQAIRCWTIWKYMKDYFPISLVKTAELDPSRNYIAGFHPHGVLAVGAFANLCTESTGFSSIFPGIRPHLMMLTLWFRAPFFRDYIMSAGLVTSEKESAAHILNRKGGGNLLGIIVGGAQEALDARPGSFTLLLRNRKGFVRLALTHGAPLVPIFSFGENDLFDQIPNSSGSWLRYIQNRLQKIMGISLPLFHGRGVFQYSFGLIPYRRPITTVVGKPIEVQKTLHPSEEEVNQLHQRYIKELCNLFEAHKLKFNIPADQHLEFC
IC50 (human MOGAT-2 [2]),IC50 (human MOGAT-2 [3]),SMILES,reduction of 18:1 TAG (plasma TAG 18:1 18:1 18:1 net AUC) ([1]; 60 mg/kg),"reduction of TAG secretion/absorption (percent inhibition of plasma total triglyceride net AUC) ([1]; 60 mg/kg, total TAG)",reduction of 18:1 TAG (plasma TAG 18:1 18:1 18:1 net AUC) ([1]; 30 mg/kg),"reduction of TAG secretion (percent inhibition of plasma total triglyceride net AUC) ([1]; 30 mg/kg, total TAG)"
36.1 nM,,"C[C@H](CNCc1ccc([C@H](NS(C)(=O)=O)C(F)(F)F)cc1)Oc1ccc(F)cn1.Cl [Example 36, N-[(1S)-2,2,2-Trifluoro-1-{4-[({(2r)-2-[(5-fluoropyridin-2-yl)oxy]propyl}amino)methyl]phenyl}ethyl]-methanesulfonamide hydrochloride]",43%,38%,,
44.6 nM,,"COC[C@H](CNCc1ccc([C@H](NS(C)(=O)=O)C(F)(F)F)cc1)Oc1ccccn1 [Example 5, N-{(1S)-2,2,2-Trifluoro-1-[4-({[(2S)-3-methoxy-2-(pyridin-2-yloxy)propyl]amino}-methyl)phenyl]ethyl}-methanesulfonamide hydrochloride (1:1)]",,,,
14.4 nM,,"C[C@H](CNCc1ccc([C@H](NS(C)(=O)=O)C(F)(F)F)cc1)Oc1ccccn1 [Example 3, N-{(1S)-2,2,2-Trifluoro-1-[4-({[(2R)-2-(pyridin-2-yloxy)propyl]amino}-methyl)phenyl]ethyl}-methanesulfonamide hydrochloride]",,,,
30.6 nM,2 nM,"COC[C@H](CNCc1ccc([C@H](NS(C)(=O)=O)C(F)(F)F)cc1)Oc1ccc(F)cn1.Cl [Example 1, N-[(1S)-2,2,2-Trifluoro-1-{4-[({(2S)-2-[(5-fluoropyridin-2-yl)oxy]-3-methoxypropyl}amino)methyl]phenyl}ethyl]methanesulfonamide hydrochloride]",76%,77%,64%,61%
45.5 nM,,"CS(=O)(=O)N[C@@H](c1ccc(CNCCOc2ccc(F)cn2)cc1)C(F)(F)F [Example 17, N-[(1S)-2,2,2-Trifluoro-1-{4-[({2-[(5-fluoropyridin-2-yl)oxy]ethyl}amino)-methyl]phenyl}ethyl]-methanesulfonamide hydrochloride]",,,,
